The source of these data is ChEMBL document CHEMBL1201862, “PubChem BioAssay data set” (2004).

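These data come from cells grown in 96-well plates and exposed to compound for 48 hours at five concentrations. GI50 is the concentration that inhibits growth by half.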 Activity calls are given as the source filed them. No stated cut-off is given here; in the data, active = GI50 up to about 1.1 µM and inactive = higher.

Test systems include UO-31; HL-60; SNB-19; SK-MEL-5; SF-295; NCI-H522; HOP-62; KM12; HCT-15; OVCAR-8; SF-268; HT-29; A549; Malme-3M; K562; EKVX; NCI/ADR-RES; DU-145; MCF7; T47D.
Holding throughout (assay): inhibition of tumour cell growth, NCI panel, 48 h

`N#Cc1cccc(C2C(=O)c3ccc(C(=O)c4ccc5c(c4)C(=O)N(c4ccc(Oc6ccc(N7C(=O)c8ccc(C(=O)c9ccc%10c(c9)C(=O)N(c9cccc(C#N)c9)C%10=O)cc8C7=O)cc6)cc4)C5=O)cc3C2=O)c1` (configuration not stated): the GI50 in the test on UO-31 is > 100 µM (inactive); in the test with HL-60, > 100 µM (inactive); with SNB-19, 82.2 µM (inactive); in the test with SK-MEL-5, > 100 µM (inactive); in the test with SF-295, > 100 µM (inactive); in the test with NCI-H522, > 100 µM (inactive). Also, the GI50 with HOP-62 is > 100 µM (inactive); with KM12, > 100 µM (inactive); with HCT-15 it was more than 100 µM; in the test on OVCAR-8, > 100 µM (inactive); in the test on SF-268, > 100 µM (inactive); in the test with HT-29 it was > 100 µM (inactive). Besides, the GI50 in the test on A549, in the test on Malme-3M, in the test on K562 and in the test on EKVX was > 100 µM (inactive) each time.
As to `N[C@H](C(=O)O)[C@@H](Cl)CC(=O)O`, the GI50 with UO-31, in the test with HL-60, with SNB-19, in the test with SK-MEL-5, in the test with SF-295 and in the test with NCI-H522 was > 100 µM (inactive) in each case. The GI50 is > 100 µM (inactive) in the test on HOP-62; > 100 µM (inactive) with KM12; more than 100 µM in the test on HCT-15; > 100 µM (inactive) in the test with OVCAR-8; > 100 µM (inactive) in the test with SF-268; > 100 µM (inactive) in the test with HT-29. Also, the GI50 with A549, with Malme-3M, in the test with K562 and in the test with EKVX was > 100 µM (inactive) throughout.
In the case of `O=C(Nc1nc(C23CC4CC(CC(C4)C2)C3)cs1)c1cc2c(ccc3ccccc32)oc1=O`, the GI50 in the test on UO-31, in the test with HL-60, in the test with NCI/ADR-RES, in the test with SNB-19, in the test on SK-MEL-5 and in the test on SF-295 was > 100 µM (inactive) each time. The GI50 in the test with NCI-H522 is > 100 µM (inactive); with HOP-62, > 100 µM (inactive); in the test on KM12, > 100 µM (inactive); in the test with HCT-15 it was more than 100 µM; in the test on OVCAR-8 it was > 100 µM (inactive); in the test on DU-145, > 100 µM (inactive). Moreover, the GI50 in the test with SF-268, in the test with MCF7, in the test on HT-29, with A549, in the test with Malme-3M and in the test on K562 was > 100 µM (inactive) throughout. Besides, the GI50 in the test on EKVX is > 100 µM (inactive).
Consider `O=[N+]([O-])c1ccc2nc(/C(=N/Nc3ccccc3)C(O)c3ccco3)c(O)nc2c1` (configuration not stated), for which the GI50 in the test on UO-31 is 86.5 µM (inactive); in the test with HL-60 it was 19.9 µM (inactive); with SNB-19 it was > 100 µM (inactive); in the test with SK-MEL-5, 44.5 µM (inactive); in the test on SF-295, > 100 µM (inactive); in the test with NCI-H522, 9.55 µM (inactive). Moreover, the GI50 is 37.6 µM (inactive) in the test with HOP-62; > 100 µM (inactive) in the test on KM12; more than 100 µM in the test with HCT-15; > 100 µM (inactive) in the test on OVCAR-8; 25.4 µM (inactive) in the test on SF-268; > 100 µM (inactive) with HT-29. For the same molecule, the GI50 with A549 was > 100 µM (inactive); in the test on Malme-3M, > 100 µM (inactive); with K562, > 100 µM (inactive); with EKVX, 39 µM (inactive).
On to `CC[N+]1(C)CCC(O)(c2ccc(C)cc2)C(C(=O)c2ccc(C)cc2)C1` (configuration not stated), for which the GI50 in the test on UO-31 is > 100 µM (inactive); with HL-60, 56.8 µM (inactive); with NCI/ADR-RES, > 100 µM (inactive); in the test with SNB-19, > 100 µM (inactive); in the test with SK-MEL-5 it was > 100 µM (inactive); in the test with SF-295, 37.4 µM (inactive). Besides, the GI50 is 23.7 µM (inactive) with NCI-H522; > 100 µM (inactive) with HOP-62; > 100 µM (inactive) with KM12; 21.7 µM in the test with HCT-15; 34.2 µM (inactive) in the test with OVCAR-8; > 100 µM (inactive) in the test on DU-145. For the same molecule, the GI50 in the test on SF-268 was 34.8 µM (inactive); in the test on MCF7, 16.4 µM (inactive); in the test on HT-29, 42.7 µM (inactive); in the test on A549 it was > 100 µM (inactive); in the test on Malme-3M it was 26.1 µM (inactive); in the test with K562, 19.6 µM (inactive). Moreover, in the test with EKVX, the GI50 is > 100 µM (inactive).
`C=C(Cl)C(C)(Cl)CCC(Cl)C(C)(C)Cl` (configuration not stated): the GI50 was 37.6 µM (inactive) in the test on UO-31; 36.2 µM (inactive) in the test on HL-60; > 100 µM (inactive) in the test on NCI/ADR-RES; > 100 µM (inactive) in the test on SNB-19; 50.5 µM (inactive) in the test with SK-MEL-5; > 100 µM (inactive) in the test on SF-295. Further, the GI50 was 23.1 µM (inactive) in the test on NCI-H522; > 100 µM (inactive) in the test on HOP-62; 87.9 µM (inactive) in the test with KM12; > 100 µM (inactive) in the test with DU-145; 89.9 µM (inactive) in the test on SF-268; 37.8 µM (inactive) in the test on MCF7. The GI50 in the test on HT-29 was 43.7 µM (inactive); in the test on A549, 44.8 µM (inactive); with Malme-3M, 38.2 µM (inactive); in the test on K562, 33.7 µM (inactive); in the test with EKVX, > 100 µM (inactive).
`Nn1c(-c2ccccc2)nc2ccc(Br)cc2c1=O`: the GI50 is 24.4 µM (inactive) in the test on UO-31; 15.6 µM (inactive) in the test with HL-60; 95.3 µM (inactive) with SNB-19; 53.1 µM (inactive) with SK-MEL-5; 58.1 µM (inactive) in the test with SF-295; 33.7 µM (inactive) with NCI-H522. Further, the GI50 with HOP-62 is > 10 µM (inactive); with KM12, 86.1 µM (inactive); in the test with HCT-15, 40.8 µM; in the test on OVCAR-8, 35.4 µM (inactive); with SF-268, 30.7 µM (inactive); in the test on HT-29, 61 µM (inactive). For the same molecule, the GI50 was > 100 µM (inactive) in the test on A549, 15.1 µM (inactive) in the test on Malme-3M, 29.3 µM (inactive) in the test on K562 and 31.9 µM (inactive) in the test on EKVX.
For the molecule `C[Si](C)(C)/N=C1\N2C(=NC1(C(F)(F)F)C(F)(F)F)Sc1ccccc12`, the GI50 in the test with UO-31, in the test with HL-60, with SNB-19, with SK-MEL-5, with SF-295 and in the test on NCI-H522 was > 50 µM (inactive) throughout. The GI50 with HOP-62 was > 50 µM (inactive); with KM12, > 50 µM (inactive); with HCT-15 it was more than 50 µM; with OVCAR-8, > 50 µM (inactive); in the test with SF-268, > 50 µM (inactive); with HT-29, > 50 µM (inactive). Moreover, the GI50 in the test on A549, in the test on Malme-3M, in the test with K562 and in the test on EKVX was > 50 µM (inactive) in each case.
For `CN1C2=C(CC3=C1CC(C)(C)CC3=O)C(=O)CC(C)(C)C2`, the GI50 in the test on UO-31, in the test on HL-60, in the test with NCI/ADR-RES, in the test on SNB-19, with SK-MEL-5 and in the test on KM12 was > 100 µM (inactive) in each case. Moreover, the GI50 in the test on HCT-15 was more than 100 µM; in the test with OVCAR-8 it was > 100 µM (inactive); in the test with SF-268 it was > 100 µM (inactive); in the test on MCF7 it was > 100 µM (inactive); in the test with HT-29, > 100 µM (inactive); in the test on A549, > 100 µM (inactive). Moreover, the GI50 in the test on K562 and in the test on EKVX was > 100 µM (inactive) throughout.
In the case of `COC(=O)/C=C(/OC)[C@H](C)[C@H](/C=C/c1csc(-c2csc(C(C)C)n2)n1)OC`, the GI50 is 0.703 µM (active) in the test on UO-31; 2.51 µM (inactive) in the test with HL-60; 0.841 µM (active) with NCI/ADR-RES; < 0.0177 µM (active) in the test on SK-MEL-5; 0.0681 µM (active) in the test with SF-295; 1.21 µM (inactive) in the test with NCI-H522. Moreover, the GI50 is > 43.3 µM (inactive) with HOP-62; 1.52 µM (inactive) in the test on KM12; 0.0975 µM in the test on HCT-15; 0.785 µM (active) in the test with OVCAR-8; 0.647 µM (active) in the test with SF-268; 0.178 µM (active) in the test on MCF7. For the same molecule, the GI50 was 0.29 µM (active) with HT-29; 0.136 µM (active) with A549; 1.4 µM (inactive) in the test with T47D; 18.8 µM (inactive) in the test on Malme-3M; 0.52 µM (active) in the test on K562; 0.721 µM (active) in the test with EKVX.
Regarding `COC(=O)/C(=N\N)C(C(=O)C(=O)Nc1cc(Cl)ccc1Cl)c1nc2ccc([N+](=O)[O-])cc2nc1O` (configuration not stated), the GI50 is 29.6 µM (inactive) in the test on UO-31; > 100 µM (inactive) in the test with HL-60; > 100 µM (inactive) in the test on NCI/ADR-RES; > 100 µM (inactive) in the test on SK-MEL-5; > 100 µM (inactive) in the test with SF-295; > 100 µM (inactive) with NCI-H522. The GI50 was > 100 µM (inactive) in the test on HOP-62; > 100 µM (inactive) with KM12; 82.6 µM in the test on HCT-15; > 100 µM (inactive) with OVCAR-8; > 100 µM (inactive) in the test on SF-268; > 100 µM (inactive) in the test on MCF7. The GI50 with HT-29 was > 100 µM (inactive); in the test on A549, > 100 µM (inactive); in the test with T47D, > 100 µM (inactive); in the test with Malme-3M it was > 100 µM (inactive); in the test with K562 it was > 100 µM (inactive); in the test with EKVX it was 72.9 µM (inactive).
On to `COc1cc([C@@H]2c3cc4c(cc3C[C@H]3COC(=O)[C@@H]32)OCO4)cc2c1OCO2` [AUSTROBAILIGNAN 1], for which the GI50 in the test on UO-31, with NCI/ADR-RES, in the test on SNB-19, in the test on SK-MEL-5, in the test on SF-295 and in the test with NCI-H522 was < 0.01 µM (active) in each case. Further, the GI50 in the test with HOP-62 is < 0.01 µM (active); in the test with KM12, 0.132 µM (active); in the test on HCT-15, less than 0.01 µM; in the test on OVCAR-8 it was < 0.01 µM (active); in the test on DU-145 it was < 0.01 µM (active); with SF-268, < 0.01 µM (active). Besides, the GI50 in the test with MCF7, in the test on HT-29, with A549, in the test on Malme-3M and in the test with EKVX was < 0.01 µM (active) throughout.
